No end group written: not given here.
Experiments:
ACE2 = details: short peptide; ref not given ("It was reported"); cited from earlier work
Excerpt: To date, only a small number of drug design studies have focused on the SARS-CoV-2 receptor, with a particular emphasis on ACE2 antagonists. Exogenous proteins have disadvantages such as low efficiency in drug delivery and immunogenicity, whereas small-molecule ligands pose limitations such as challenges for manufacturing and increased toxicity. Thus, direct interception of the amino acids of ACE2 could be a simple and effective method. The length of the ACE2-derived peptide (CSNP1) is 16 amino acids.

Vero E6 cells [1] = assay: Cellular adsorption of FITC-labeled peptide (fluorescence microscopy); type: cell-based, monkey; details: cells treated solely with FITC
Method: The cellular adsorption behaviors of K5 were examined using FITC-labeled peptide. Vero E6 cells were incubated in 24-well plates in medium containing 100 μM of FITC-labeled peptide for two different durations: 1 min and 1 h. Subsequently, the cells were washed three times using a PBS solution containing heparin, then stained with DAPI for 30 min. Finally, they were fixed using a 4% PFA solution and then observed using an inverted fluorescence microscope manufactured by Zeiss in Oberkochen, Germany. The control group consisted of cells with only functional peptides added or only FITC added.

Vero E6 cells [2] = assay: MTT cytotoxicity, Vero E6; type: cell-based, monkey; details: 24 h; for cell viability: MTT, % of untreated cells
Method: (§1) Vero E6 and A549 cells were cultured in DMEM containing 10% FBS and 5% CO2 at 37 degrees centigrade (°C). The medium was renewed once every three days. The cells were passaged when they attained confluence.
(§2) The cytotoxicity of the functional peptide was assessed using the MTT test. The test cells were seeded onto 96-well plates and grown overnight. The functional peptide K5 was introduced at concentrations of 0.1, 1, 10, and 100 μM for a 24 h incubation. MTT was then added, and cells were incubated for an additional 2 h. The medium was removed and replaced with 100 μL of DMSO. A measurement of absorbance was conducted at 492 nm (OD492) using a microplate reader (EnSpire, Cleveland, OH, USA). Cells without treatment were set as blanks, and the results are expressed as a percentage of the untreated cells.

A549 cells = assay: MTT cytotoxicity, A549; type: cell-based, human; details: 24 h; for cell viability: MTT, % of untreated cells
Method: as §1, §2

[3] = biological target: ACE2–S protein interaction (Vero E6 cells) (Chlorocebus aethiops, UniProt Q1LZX8); assay: Inhibition of S1 protein-ACE2 interaction, flow cytometry, Vero E6; type: cell-based, monkey; details: K5 1 h pre-incubation, S1 protein 10 μg/mL 1 h

EDLFYQ [SAPs]
IC50 (ACE2): at the mM level

fluorescein isothiocyanate [FITC]
cellular adsorption (fluorescence), FITC alone (Vero E6 cells [1]): did not exhibit any fluorescence

KYPAY [K5, KYPAY]
cell viability (Vero E6 cells [2]; 0.1 μM): 108% | cell viability (Vero E6 cells [2]; 1 μM): 105% | cell viability (Vero E6 cells [2]; 10 μM): 96% | cell viability (Vero E6 cells [2]; 100 μM): 94% | change in cell viability / toxicity (Vero E6 cells [2]; 0.1-100 μM, physiological pH, Vero E6): no discernible change in cell viability | cell viability (A549 cells; 0.1 μM): 93% | cell viability (A549 cells; 1 μM): 100% | cell viability (A549 cells; 10 μM): 103% | cell viability (A549 cells; 100 μM): 101% | change in cell viability / toxicity (A549 cells; 0.1-100 μM, physiological pH, A549): no discernible change in cell viability | MFI reduction ([3]; FBS, 10 μM): 50% | MFI decrease ([3]; FBS, 100 μM): 70% | MFI decrease ([3]; PBS, 1 μM): approximately 25% | inhibition at 100 µM ([3]; Vero C1008, PBS, 100 μM, read-out: MFI decrease (inhibition)): 78%
